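Five compound concentrations were applied to cells in 96-well plates for 48 hours; endpoints were derived by simple linear interpolation of the resulting dose-response curve. Here, GI50 denotes the concentration required for 50% inhibition of growth.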 The source made the active and inactive calls. Rule as the data show it: active = GI50 up to about 1.1 µM and inactive = higher.
Legend:
Experiment in all cases: NCI anticancer screen, dose series, 48 h
786-0 = tested on: 786-0
A498 = tested on: A498
BT-549 = tested on: BT-549
HCC 2998 = tested on: HCC 2998
HCT-116 = tested on: HCT-116
HOP-92 = tested on: HOP-92
K562 = tested on: K562
M14 = tested on: M14
MDA-MB-435 = tested on: MDA-MB-435
MDA-N = tested on: MDA-N
NCI-H226 = tested on: NCI-H226
SF-268 = tested on: SF-268
SK-MEL-5 = tested on: SK-MEL-5
SN12C = tested on: SN12C
SR = tested on: SR
TK-10 = tested on: TK-10
U-251 = tested on: U-251
UACC-257 = tested on: UACC-257
CCRF-CEM = tested on: CCRF-CEM
MCF7 = tested on: MCF7

Measured: GI50

Cc1cc(O)c(C(C)C)cc1NC(=O)Nc1cccc2ccccc12
inactive: 786-0 15.3 µM | A498 13.1 µM | BT-549 17.2 µM | HCC 2998 18.8 µM | HCT-116 15.6 µM | HOP-92 17.4 µM | K562 34.6 µM | M14 18 µM | MDA-MB-435 15.9 µM | MDA-N 12.7 µM | NCI-H226 19.5 µM | SF-268 17.3 µM | SK-MEL-5 12.5 µM | SN12C 16.5 µM | SR 26.6 µM | TK-10 18.2 µM | U-251 17.2 µM | UACC-257 17.5 µM

N#Cc1cccc(Nc2ccccc2SSc2ccccc2Nc2cccc(C#N)c2)c1
inactive: 786-0 3.91 µM | A498 9.89 µM | BT-549 > 10 µM | CCRF-CEM 2.94 µM | HCC 2998 16.6 µM | HCT-116 9.06 µM | HOP-92 7.89 µM | K562 5.12 µM | M14 7.55 µM | MCF7 7.52 µM | MDA-MB-435 8.69 µM | MDA-N 9.23 µM | NCI-H226 10.3 µM | SF-268 4.93 µM | SK-MEL-5 9.04 µM | SN12C 7.59 µM | TK-10 19.3 µM | U-251 5.92 µM | UACC-257 13.6 µM

Cc1cc(Cl)ccc1OCC(=O)Nc1nc(N)nc(N)n1
inactive: 786-0 > 100 µM | A498 > 100 µM | BT-549 > 100 µM | CCRF-CEM > 100 µM | HCT-116 > 100 µM | HOP-92 > 100 µM | K562 > 100 µM | M14 > 100 µM | MCF7 > 100 µM | MDA-MB-435 > 100 µM | MDA-N > 100 µM | NCI-H226 > 100 µM | SF-268 > 100 µM | SK-MEL-5 > 100 µM | SN12C > 100 µM | SR > 100 µM | TK-10 > 100 µM | U-251 > 100 µM | UACC-257 > 100 µM

CC(C)NC(=O)OCc1c(COC(=O)NC(C)C)n(C)c2c1ccc1cc(Cl)c(Cl)cc12
inactive: 786-0 7.5 µM | A498 1.75 µM | BT-549 15.2 µM | CCRF-CEM 3.33 µM | HCT-116 11.7 µM | HOP-92 11.4 µM | K562 4.44 µM | M14 15.5 µM | MCF7 3.28 µM | MDA-MB-435 6.43 µM | MDA-N 13.6 µM | NCI-H226 3.78 µM | SF-268 13.8 µM | SK-MEL-5 16.5 µM | SR 2.64 µM | TK-10 5.43 µM | U-251 15.9 µM | UACC-257 15.7 µM

CCOC(=O)C1CCC/C1=N\NC(=N)N.Cc1cc(O)c(C(C)C)cc1S(=O)(=O)O (centres undefined)
inactive: 786-0 > 100 µM | A498 > 100 µM | BT-549 > 100 µM | CCRF-CEM > 100 µM | HCC 2998 > 100 µM | HCT-116 > 100 µM | K562 > 100 µM | M14 > 100 µM | MCF7 > 100 µM | MDA-MB-435 > 100 µM | MDA-N > 100 µM | NCI-H226 > 100 µM | SF-268 > 100 µM | SK-MEL-5 > 100 µM | SN12C > 100 µM | SR > 100 µM | TK-10 > 100 µM | U-251 > 100 µM | UACC-257 > 100 µM

NCC1CCCCC1.O=C(O)NCC1CCCCC1
inactive: 786-0 24.1 µM | A498 15 µM | BT-549 26.5 µM | CCRF-CEM 15.7 µM | HCT-116 27.6 µM | HOP-92 3.95 µM | K562 6.28 µM | M14 36.6 µM | MDA-MB-435 22.9 µM | MDA-N 15.9 µM | NCI-H226 17.9 µM | SF-268 12.8 µM | SK-MEL-5 15.3 µM | SN12C 12.5 µM | SR 23.4 µM | TK-10 30 µM | U-251 7.45 µM | UACC-257 22.2 µM

N=c1oc2ccc3ccccc3c2cc1-c1nc(O)c2ccccc2n1
inactive: 786-0 24.3 µM | BT-549 15.1 µM | HCC 2998 29.6 µM | HCT-116 24.4 µM | HOP-92 15.1 µM | K562 19.7 µM | M14 25.9 µM | MCF7 14.4 µM | MDA-MB-435 58.3 µM | MDA-N 46.2 µM | NCI-H226 37.1 µM | SF-268 30.8 µM | SK-MEL-5 44.5 µM | SN12C 74 µM | SR 26.5 µM | TK-10 21 µM | U-251 19.2 µM | UACC-257 42.5 µM

Cc1n2nc(N)sc2n[n+]1CC(=O)c1ccccc1
inactive: 786-0 > 100 µM | A498 > 100 µM | BT-549 > 100 µM | CCRF-CEM 70 µM | HCC 2998 > 100 µM | HCT-116 > 100 µM | K562 > 100 µM | M14 > 100 µM | MCF7 > 100 µM | MDA-MB-435 > 100 µM | MDA-N > 100 µM | NCI-H226 > 100 µM | SF-268 > 100 µM | SK-MEL-5 > 100 µM | SN12C > 100 µM | TK-10 > 100 µM | U-251 > 100 µM | UACC-257 > 100 µM

O=C1/C(=C\c2ccc([N+](=O)[O-])cc2)N(S(=O)(=O)c2ccccc2)c2ncccc21
inactive: 786-0 16.5 µM | BT-549 18.3 µM | CCRF-CEM 2.98 µM | HCT-116 18.2 µM | K562 3.55 µM | M14 17.4 µM | MCF7 24.7 µM | MDA-MB-435 21.4 µM | MDA-N 19.5 µM | NCI-H226 22.9 µM | SF-268 23.1 µM | SK-MEL-5 16.8 µM | SN12C 16.9 µM | SR 3.33 µM | TK-10 17.5 µM | U-251 18.2 µM | UACC-257 21.8 µM

CCOC(=O)C(C(=O)OCC)C1C=CCC2c3ccccc3COCC21 (centres undefined)
inactive: 786-0 > 100 µM | A498 38.7 µM | BT-549 49 µM | CCRF-CEM 36.1 µM | HCC 2998 52.5 µM | HCT-116 41.1 µM | HOP-92 > 100 µM | K562 41.9 µM | M14 49.9 µM | MCF7 31.8 µM | MDA-MB-435 36.9 µM | MDA-N 40.7 µM | NCI-H226 73.8 µM | SF-268 67.5 µM | SK-MEL-5 19.1 µM | SN12C 79.6 µM | TK-10 98.2 µM | U-251 57.9 µM | UACC-257 30.3 µM

Nc1ccc2[nH]cc(CCC(=O)O)c2c1
inactive: 786-0 > 100 µM | A498 > 100 µM | BT-549 > 100 µM | CCRF-CEM 9.48 µM | HCT-116 > 100 µM | M14 > 100 µM | MCF7 > 100 µM | MDA-MB-435 > 100 µM | MDA-N > 100 µM | NCI-H226 > 100 µM | SF-268 > 100 µM | SK-MEL-5 > 100 µM | SN12C > 100 µM | TK-10 > 100 µM | U-251 > 100 µM | UACC-257 > 100 µM

O=C(O)CC(C(=O)O)c1ccccc1[N+](=O)[O-] (centres undefined)
inactive: 786-0 > 100 µM | A498 > 100 µM | BT-549 > 100 µM | CCRF-CEM > 100 µM | HCC 2998 > 100 µM | HCT-116 > 100 µM | HOP-92 > 100 µM | K562 > 100 µM | M14 > 100 µM | MCF7 > 100 µM | MDA-MB-435 > 100 µM | MDA-N > 100 µM | NCI-H226 > 100 µM | SF-268 > 100 µM | SK-MEL-5 > 100 µM | SN12C > 100 µM | TK-10 > 100 µM | U-251 > 100 µM | UACC-257 > 100 µM

Cc1cc2cc3ccccc3cc2c(=O)[nH]1
inactive: 786-0 > 10 µM | BT-549 > 10 µM | CCRF-CEM > 10 µM | HCT-116 > 10 µM | HOP-92 > 10 µM | K562 > 10 µM | M14 > 10 µM | MCF7 > 10 µM | MDA-MB-435 > 10 µM | MDA-N > 10 µM | NCI-H226 > 10 µM | SF-268 > 10 µM | SR > 10 µM | TK-10 > 10 µM | U-251 > 10 µM | UACC-257 > 10 µM

NNC(=S)N1CCN(C(=S)NN)CC1
inactive: 786-0 > 100 µM | A498 4.97 µM | BT-549 > 100 µM | CCRF-CEM > 100 µM | HCC 2998 > 100 µM | HCT-116 > 100 µM | HOP-92 > 100 µM | M14 13.7 µM | MDA-MB-435 > 100 µM | MDA-N > 100 µM | SF-268 > 100 µM | SK-MEL-5 > 100 µM | SN12C > 100 µM | SR > 100 µM | U-251 > 100 µM | UACC-257 > 100 µM

Nc1ccccc1N/C(=C\C(=O)C(Cl)(Cl)Cl)c1ccccc1
inactive: 786-0 20.4 µM | BT-549 25.7 µM | CCRF-CEM 30.2 µM | HCC 2998 17.3 µM | HCT-116 16.1 µM | HOP-92 14.5 µM | K562 30.2 µM | M14 20.1 µM | MCF7 23.7 µM | MDA-MB-435 30.9 µM | MDA-N 18.1 µM | NCI-H226 24.2 µM | SF-268 24.3 µM | SK-MEL-5 15 µM | SN12C 20.1 µM | SR 28.2 µM | TK-10 65 µM | U-251 16.8 µM | UACC-257 23.9 µM

Reference: ChEMBL document CHEMBL1201862, “PubChem BioAssay data set” (2004)
